Our source for the IC50 and Activity values is ChEMBL document CHEMBL1152406, “Conformationally restricted homotryptamines. Part 5: 3-(trans-2-aminomethylcyclopentyl)indoles as potent selective serotonin reuptake inhibitors” (Bioorg Med Chem Lett, 2009).

Experiment [1] concerns the target Sodium-dependent serotonin transporter (Homo sapiens, UniProt P31645). As to the kind of experiment: Displacement of [125I]RTI-55 from human SERT expressed in HEK293 cells. The experiment is classed as cell-based. In general terms: Displacement assays read how much labelled ligand stays bound in the presence of the test substance.
For experiment [2], the system named is Rattus norvegicus. Briefly: Increase in extracellular serotonin level in frontal cortex of awake and free moving rat at 0.3 to 3 mg/kg, po by microdialysis. In kind it is functional, organism-based.
Experiment [3] addresses Sodium-dependent noradrenaline transporter (Homo sapiens, UniProt P23975). As to the kind of experiment: Displacement of [125I]nisoxetine from human NET expressed in HEK293 cells. The experiment is classed as cell-based.
Experiment [4] deals with Sodium-dependent dopamine transporter (Homo sapiens, UniProt Q01959). As to the kind of experiment: Displacement of [125I]RTI-55 from human DAT expressed in HEK293 cells. In kind it is cell-based.
Chain of Sodium-dependent dopamine transporter (Q01959 whole entry): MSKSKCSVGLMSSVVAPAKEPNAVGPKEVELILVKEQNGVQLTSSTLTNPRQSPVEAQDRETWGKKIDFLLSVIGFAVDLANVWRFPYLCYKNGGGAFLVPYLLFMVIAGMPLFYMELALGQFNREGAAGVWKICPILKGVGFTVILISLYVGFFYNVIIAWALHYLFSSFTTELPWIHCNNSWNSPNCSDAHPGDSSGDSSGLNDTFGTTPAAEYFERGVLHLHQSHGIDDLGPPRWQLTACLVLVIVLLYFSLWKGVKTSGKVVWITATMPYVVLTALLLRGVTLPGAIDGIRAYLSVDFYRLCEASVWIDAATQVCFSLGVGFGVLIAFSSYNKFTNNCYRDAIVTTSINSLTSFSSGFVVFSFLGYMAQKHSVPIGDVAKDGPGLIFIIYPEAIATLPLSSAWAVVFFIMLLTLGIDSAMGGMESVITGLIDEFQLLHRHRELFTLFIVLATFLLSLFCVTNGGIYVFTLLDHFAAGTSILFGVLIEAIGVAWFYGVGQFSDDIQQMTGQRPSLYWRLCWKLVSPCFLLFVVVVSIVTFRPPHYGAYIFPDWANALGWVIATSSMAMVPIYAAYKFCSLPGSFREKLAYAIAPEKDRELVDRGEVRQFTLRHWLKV
In experiment [5] the test system is Rattus norvegicus. As to the kind of experiment: Increase in extracellular serotonin level in frontal cortex of awake and free moving rat at 1 mg/kg, po by microdialysis relative to basal level. The experiment is classed as functional.
Experiment [6] has as its system Rattus norvegicus. Briefly: Increase in extracellular serotonin level in frontal cortex of awake and free moving rat at 5 mg/kg, po by microdialysis relative to basal level. The experiment is classed as functional.

Active and inactive are the calls of the source. No cut-off for these calls is given here.

Chain of Sodium-dependent serotonin transporter (P31645 whole entry): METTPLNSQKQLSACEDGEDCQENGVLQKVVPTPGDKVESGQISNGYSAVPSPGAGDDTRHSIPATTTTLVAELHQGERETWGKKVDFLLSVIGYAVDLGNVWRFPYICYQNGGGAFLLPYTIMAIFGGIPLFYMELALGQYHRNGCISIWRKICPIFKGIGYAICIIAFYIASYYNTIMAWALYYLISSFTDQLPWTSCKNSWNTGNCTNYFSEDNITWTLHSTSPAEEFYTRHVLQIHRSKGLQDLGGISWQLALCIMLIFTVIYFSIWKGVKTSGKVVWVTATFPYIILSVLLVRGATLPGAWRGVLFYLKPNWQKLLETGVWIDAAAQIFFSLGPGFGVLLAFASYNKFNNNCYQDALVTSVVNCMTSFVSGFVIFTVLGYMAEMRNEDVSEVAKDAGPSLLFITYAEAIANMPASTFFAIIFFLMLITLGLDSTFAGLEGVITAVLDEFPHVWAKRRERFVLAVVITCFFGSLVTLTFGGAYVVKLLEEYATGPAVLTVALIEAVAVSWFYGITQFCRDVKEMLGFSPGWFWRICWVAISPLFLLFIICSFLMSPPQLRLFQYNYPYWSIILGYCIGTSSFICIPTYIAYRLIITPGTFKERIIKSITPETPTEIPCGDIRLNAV
Chain of Sodium-dependent noradrenaline transporter (P23975 whole entry): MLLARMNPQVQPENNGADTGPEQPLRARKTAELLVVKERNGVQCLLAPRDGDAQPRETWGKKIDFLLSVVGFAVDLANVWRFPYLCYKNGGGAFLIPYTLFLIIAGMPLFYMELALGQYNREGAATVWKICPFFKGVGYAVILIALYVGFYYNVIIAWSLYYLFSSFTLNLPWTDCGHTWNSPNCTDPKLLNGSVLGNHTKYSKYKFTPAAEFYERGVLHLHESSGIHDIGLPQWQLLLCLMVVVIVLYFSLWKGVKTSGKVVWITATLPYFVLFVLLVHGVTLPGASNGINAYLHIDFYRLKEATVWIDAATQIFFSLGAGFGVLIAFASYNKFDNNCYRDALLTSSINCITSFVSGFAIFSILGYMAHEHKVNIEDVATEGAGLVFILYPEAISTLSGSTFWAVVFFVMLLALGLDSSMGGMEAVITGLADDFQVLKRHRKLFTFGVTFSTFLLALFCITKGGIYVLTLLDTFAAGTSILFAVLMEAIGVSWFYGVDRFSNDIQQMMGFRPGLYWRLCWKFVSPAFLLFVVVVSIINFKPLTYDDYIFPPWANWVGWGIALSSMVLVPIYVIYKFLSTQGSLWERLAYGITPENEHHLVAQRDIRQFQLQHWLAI

Broadly, the IC50 is the concentration at which inhibition is half-maximal. Low readings indicate greater potency in that assay, high ones weaker potency in that assay. `CN(C)C[C@@H]1CCC[C@@H]1c1c[nH]c2ccc(C#N)cc12` (racemic) had an IC50 in experiment [1] of 2.6 nM. Consider `CN(C)C[C@H]1CCC[C@@H]1c1c[nH]c2ccc(C#N)cc12` [listing 1 of 2 here], for which the outcome in the experiment on Rattus norvegicus [2] was Active. Turning to `CN(C)C[C@H]1C[C@@H]1c1c[nH]c2ccc(C#N)cc12`, the IC50 in experiment [3] was determined as 9200 nM; in experiment [1] it was 0.36 nM; in experiment [4], 4200 nM. With `N#Cc1ccc2[nH]cc([C@H]3CCC[C@@H]3CN3CCCC3)c2c1` (racemic), in experiment [1], the half-inhibitory concentration (IC50) was determined as 22 nM. In experiment [1], `CCNC[C@H]1CCC[C@@H]1c1c[nH]c2ccc(C#N)cc12` (racemic) registered an IC50 of 170 nM. Against the preceding compound, the IC50 is about 7.7-fold higher.

In the case of `CN(C)C[C@H]1CCC[C@@H]1c1c[nH]c2ccc(C#N)cc12` [listing 2 of 2 here], the IC50 in experiment [3] stood at 7900 nM; in experiment [1], 0.13 nM; in experiment [4], 690 nM. Besides, the Activity with Rattus norvegicus [5] and in the experiment with Rattus norvegicus [6] was over 300% throughout. In experiment [1], `CN(C)C[C@H]1CCC[C@H]1c1c[nH]c2ccc(C#N)cc12` yielded an IC50 of 130 nM. Still for that read-out and setting: the same measure for `CN(C)C[C@H]1CCC[C@@H]1c1c[nH]c2ccc(C#N)cc12` (racemic): 0.32 nM; for `CN(C)C[C@@H]1CCC[C@H]1c1c[nH]c2ccc(C#N)cc12`: 58 nM. The same measure, in the same setting: the same measure for `CCN(CC)C[C@H]1CCC[C@@H]1c1c[nH]c2ccc(C#N)cc12` (racemic): 240 nM. On the same count and under the same terms, in the case of `CN(Cc1ccccc1)C[C@H]1CCC[C@@H]1c1c[nH]c2ccc(C#N)cc12` (racemic) it was 85 nM. As for `CN(C)C[C@@H]1CCC[C@@H]1c1c[nH]c2ccc(C#N)cc12`, the half-maximal inhibitory concentration (IC50) in experiment [1] came to 1.2 nM. Same read-out and setting: the same measure for `CCN(C)C[C@H]1CCC[C@@H]1c1c[nH]c2ccc(C#N)cc12` (racemic): 10 nM; for `CNC[C@H]1CCC[C@@H]1c1c[nH]c2ccc(C#N)cc12` (racemic): 7 nM.
